# How the values were obtained:
# UCP2 = experiment: Islet UCP2 protein level (Western blot); type: cell-based, mouse
# Excerpt: (§1) All chemicals were purchased from Sigma (Saint Louis, Mo.) unless indicated otherwise. Detailed protocols, reagents, and instruments for islet isolation, culture, and insulin secretion were the same as described previously (Wang et al., “Molecular Mechanisms for Hyperinsulinaemia Induced by Overproduction of Selenium-Dependent Glutathione Peroxidase-1 in Mice,” Diabetologia 51:1515-1524 (2008), which is hereby incorporated by reference in its entirety). Briefly, Langerhans' islets were isolated from the WT, GKO, SKO, and dKO mice using a standard procedure (Gotoh et al., “An Improved Method for Isolation of Mouse Pancreatic Islets,” Transplantation 40:437-438 (1985), which is hereby incorporated by reference in its entirety) with minor modifications. Isolated islets (50 per sample, n=3 per group) were recovered in RPMI 1640 (Gibco, Grand Island, N.Y.) with 5.5 mM glucose and 10% FBS for 2 hours before treatment. For the islet experiments, ebselen, CuDIPs, and Se (sodium selenite) were used at 50, 10, and 0.1 μM and prepared in DMSO, ethanol, and saline, respectively. The same amounts of vehicle were used as the respective controls. The chemicals were removed after 5 hour incubation, and the islets were transferred to Krebs-Henseleit buffer for 30 min and then incubated for 60 min with 2.8 or 16.7 mM glucose in the same buffer. The supernatants were collected for insulin analysis and the islets were used for mRNA, protein, and enzyme activity analyses.
# (§2) Islet samples used for Western blot analysis were homogenized in phosphate buffer (50 mM, pH 7.4) containing 0.1% Triton X-100 and protease inhibitor mixture (AEBSF, aprotinin, bestatin hydrochloride, E-64-[N-(transepoxysuccinyl)-L-leucine 4-guanidinobutylamide], leupeptin, and pepstatin A). The homogenates were centrifuged at 14000×g for 10 min at 4° C. A total of 10 μg of protein per lane was subjected to Western blot analysis (McClung et al., “Development of Insulin Resistance and Obesity in Mice Overexpressing Cellular Glutathione Peroxidase,” Proc. Natl. Acad. Sci. USA 101:8852-8857 (2004), which is hereby incorporated by reference in its entirety). After the gel electrophoresis, the separated proteins were transferred onto a protran BA85 nitrocellulose membrane (Schleicher Schuell Bioscience, Keene, N.H.). The membranes were incubated first with respective primary antibodies (rabbit anti-GLUT2, anti-PDX1, and anti-UCP2, Millipore, Billerica, Mass.), and thereafter the second antibody against rabbit IgG (Bio-Rad, Hercules, Calif.). For loading and transfer normalization, the rabbit anti-β-actin antibody (Cell Signaling, Beverly, Mass.) was used. An enhanced chemiluminescent kit (Pierce, Rockford, Ill.) was used for detection of the band intensity.
# GLUT2 = experiment: Islet GLUT2 protein level (Western blot); type: cell-based, mouse
# Excerpt: as §1, §2
# GK = experiment: Islet GK enzyme activity after treatment; type: cell-based, mouse
# Excerpt: as §1
# (§3) Islet GK activity was assayed at 28° C. by measuring absorbance increases of NADPH at 340 nm in a coupled enzyme system. One unit of GK activity was defined as the amount that catalyzes the formation of 1 μmole of glucose 6-phosphate per minute. Islet and liver LDH activities were measured using a kit from Sigma according to the manufacturer's instructions. Islet and liver GSR activities were measured as previously-described (Zhu et al., “Double Null of Selenium-Glutathione Peroxidase-1 and Copper, Zinc-Superoxide Dismutase Enhances Resistance of Mouse Primary Hepatocytes to Acetaminophen Toxicity,” Exp. Biol. Med. (Maywood) 231:545-552 (2006), which is hereby incorporated by reference in its entirety) and one unit of activity was defined as 1 nmol of glutathione disulfide reduced per minute. Plasma ALT activity was assayed using a kit (Thermo Scientific, Waltham, Mass.) according to the manufacturer's instructions. Plasma AKP activity was measured by the hydrolysis of p-nitrophenol phosphate to p-nitrophenol, and the enzyme activity unit was defined as the amount of activity that releases 1 μmol of p-nitrophenol per minute at 30° C. (Bowers et al., “A Continuous Spectrophotometric Method for Measuring the Activity of Serum Alkaline Phosphatase,” Clin. Chem. 12:70-89 (1966), which is hereby incorporated by reference in its entirety).
# [1] = tested on: islets isolated from WT, GKO, SKO, and dKO mice; experiment: Glucose-stimulated insulin secretion (GSIS) of isolated islets; type: cell-based, mouse; details: for GSIS (insulin secretion) versus solvent control: 16.7 mM glucose, 5 hour pre-treatment
# Excerpt: as §1
# PDX1 = experiment: Islet PDX1 protein level (Western blot); type: cell-based, mouse
# Excerpt: as §1, §2
# [2] = tested on: gk, glut2, pdx1, ucp2 and genes in the ARE, GR, Wnt and NFAT pathways; experiment: Real time Q-PCR of islet mRNA levels (GSIS regulators, ARE, GR, Wnt, NFAT pathway genes); type: cell-based, mouse; details: dKO islets
# Excerpt: All chemicals were purchased from Sigma (Saint Louis, Mo.) unless indicated otherwise. Detailed protocols, reagents, and instruments for islet isolation, culture, and insulin secretion were the same as described previously (Wang et al., “Molecular Mechanisms for Hyperinsulinaemia Induced by Overproduction of Selenium-Dependent Glutathione Peroxidase-1 in Mice,” Diabetologia 51:1515-1524 (2008), which is hereby incorporated by reference in its entirety). Briefly, Langerhans' islets were isolated from the WT, GKO, SKO, and dKO mice using a standard procedure (Gotoh et al., “An Improved Method for Isolation of Mouse Pancreatic Islets,” Transplantation 40:437-438 (1985), which is hereby incorporated by reference in its entirety) with minor modifications. Isolated islets (50 per sample, n=3 per group) were recovered in RPMI 1640 (Gibco, Grand Island, N.Y.) with 5.5 mM glucose and 10% FBS for 2 hours before treatment. […]
# Total RNA was extracted from islets using Trizol reagent (Invitrogen, Carlsbad, Calif.). […] Relative mRNA levels were determined by real time Q-PCR (7900HT; Applied Biosystems, Foster City, Calif.) as previously described (Pepper et al., “Impacts of Dietary Selenium Deficiency on Metabolic Phenotypes of Diet-Restricted GPX1-Overexpressing Mice,” Antioxid. Redox Signal. 14:383-390 (2011), which is hereby incorporated by reference in its entirety).
# [3] = tested on: lactate dehydrogenase (LDH); experiment: Islet LDH activity; type: cell-based, mouse; details: WT and GKO islets
# Description: as §3
# intracellular ROS = experiment: Islet intracellular ROS (DCFH-DA probe); type: cell-based, mouse; details: GKO islets, DCF probe
# Description: Islet ROS levels were determined using the fluorescent probe, 2′,7′-dichlorofluorescin diacetate (“DCFH-DA”). Briefly, the treated islets were washed and incubated with DCFH-DA (20 μM) for 10 min at 37° C. After removal of the probe, cells were washed with pre-warmed PBS. Fluorescence was monitored at 488 nm excitation and 525 nm emission wavelengths.
# [4] = i.p. in 4% w/v hydroxypropyl-β-cyclodextrin to C57BL/6 mice or suspended in water orally to humans; cited from earlier work
# GKO mice [5] = experiment: In vivo GSIS test in GKO mice (plasma insulin); parameters: species or system mouse; details: fasted GKO mice
# Description: (§4) Ebselen was dissolved in dimethyl sulfoxide (DMSO) and injected with saline (1:1 by volume) together. The same volume of DMSO and saline was used as the solvent control. Blood glucose concentrations were measured by clipping tails and using the Glucometer Elite system (Bayer, Elkhart, Ind.). Plasma insulin concentrations were determined using a rat/mouse Insulin ELISA kit with mouse insulin as standards (Crystal Chem, Downers Grove, Ill.).
# [6] = target: T1, glutathione reductase (GSR) (Mus musculus, UniProt P47791); experiment: Islet GSR activity; type: cell-based; details: WT and GKO islets
# T1 construct: from tissue; host or cells: isolated pancreatic islets of WT and GKO mice
# T1 sequence (P47791 27-500): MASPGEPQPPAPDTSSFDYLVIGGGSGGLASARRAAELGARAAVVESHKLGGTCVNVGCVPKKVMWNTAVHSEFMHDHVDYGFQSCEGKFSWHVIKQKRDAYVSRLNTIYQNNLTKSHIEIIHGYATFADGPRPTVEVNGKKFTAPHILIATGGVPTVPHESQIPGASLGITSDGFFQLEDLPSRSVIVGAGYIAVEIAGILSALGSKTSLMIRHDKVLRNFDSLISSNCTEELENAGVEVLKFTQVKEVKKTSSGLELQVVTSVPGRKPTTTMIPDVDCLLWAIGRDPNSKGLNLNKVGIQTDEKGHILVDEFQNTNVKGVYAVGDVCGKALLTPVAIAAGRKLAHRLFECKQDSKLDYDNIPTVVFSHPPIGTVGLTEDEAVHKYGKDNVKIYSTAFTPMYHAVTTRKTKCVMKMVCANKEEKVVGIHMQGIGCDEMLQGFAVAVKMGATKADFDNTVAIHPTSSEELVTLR
# Description: as §3
# GKO mice [7] = experiment: Glucose tolerance test (GTT) in GKO mice; type: in vivo, mouse; details: fasted GKO mice, 50 mg/kg i.p., glucose 1 g/kg
# Description: as §4
# GKO mice [8] = experiment: Off-target toxicity in GKO mice (plasma ALT, AKP; liver LDH, GSR); type: in vivo, mouse; details: 50 mg/kg i.p., 1 hour
# Description: as §4, §3
compound,measurement,setting,value
copper diisopropylsalicylate [CuDIPs],UCP2 protein decrease versus control,UCP2; SKO islets,78%
same,UCP2 protein change versus control (direction),UCP2; WT islets,increased
same,UCP2 protein change versus control (direction),UCP2; dKO islets,Neither CuDIPs nor Na2SeO3 affected
same,GLUT2 protein change versus control (direction),GLUT2; GKO islets,increase
same,GLUT2 protein elevation versus control,GLUT2; SKO islets,63%
same,GLUT2 protein change versus control (direction),GLUT2; WT islets,increased
same,GLUT2 protein change versus control (direction),GLUT2; dKO islets,Neither CuDIPs nor Na2SeO3 affected
same,GK activity change versus control (direction),GK; GKO islets,decrease
same,GK activity change versus control (direction),GK; dKO islets,Neither CuDIPs nor Na2SeO3 affected
same,baseline insulin secretion versus solvent control,"[1]; SKO islets, 2.8 mM glucose",promoted
same,GSIS (insulin secretion) versus solvent control,[1]; SKO islets,promoted
same,GSIS (insulin secretion) versus solvent control,[1]; WT islets,no effect
same,PDX1 protein elevation versus control,PDX1; SKO islets,2.4 fold
same,PDX1 protein change versus control (direction),PDX1; WT islets,increased
same,PDX1 protein change versus control (direction),PDX1; dKO islets,Neither CuDIPs nor Na2SeO3 affected
same,"expression of genes in the four pathways (ARE, GR, Wnt, NFAT) versus controls",[2],suppressed
O=c1c2ccccc2[se]n1-c1ccccc1 [ebselen],GLUT2 protein elevation versus control,GLUT2; GKO islets,2.1 fold
same,GLUT2 protein elevation versus control,GLUT2; SKO islets,6.4 fold
same,GLUT2 protein elevation versus control,GLUT2; WT islets,4.9 fold
same,GLUT2 protein elevation versus control,GLUT2; dKO islets,85%
same,effect on LDH activity,[3],no effect
same,decrease of intracellular ROS,intracellular ROS,74%
same,absorption,[4],absorbed to blood
same,blood-brain barrier crossing,[4],crossed the blood-brain barrier
same,GK activity elevation versus control,GK; GKO islets,20%
same,GK activity elevation versus control,GK; SKO islets,86%
same,GK activity elevation versus control,GK; WT islets,74%
same,GK activity elevation versus control,GK; dKO islets,58%
same,elevation of plasma insulin concentration versus control,"GKO mice [5]; 50 mg/kg i.p. 1 hour before glucose challenge, 0 min (baseline)",95%
same,elevation of plasma insulin concentration versus control,"GKO mice [5]; 50 mg/kg i.p., 15 min after the glucose challenge",1.2 fold
same,elevation of plasma insulin concentration versus control,"GKO mice [5]; 50 mg/kg i.p., 30 min after the glucose challenge",91%
same,effect on GSR activity,[6],no effect
same,PDX1 protein elevation versus control,PDX1; GKO islets,4.0 fold
same,PDX1 protein elevation versus control,PDX1; SKO islets,3.2 fold
same,PDX1 protein elevation versus control,PDX1; WT islets,5.5 fold
same,glucose clearance improved,GKO mice [7]; 15 min,17%
same,glucose clearance improved,GKO mice [7]; 30 min,18%
same,glucose clearance improved,GKO mice [7]; 60 min,21%
same,hepatic GSR activity versus control,GKO mice [8],no differences
same,hepatic LDH activity versus control,GKO mice [8],no differences
same,plasma alanine aminotransferase (ALT) activity versus control,GKO mice [8],no differences
same,plasma alkaline phosphatase (AKP) activity versus control,GKO mice [8],no differences
"O=[Se]([O-])[O-].[Na+].[Na+] [Na2SeO3, sodium selenite]",UCP2 protein change versus control (direction),UCP2; dKO islets,Neither CuDIPs nor Na2SeO3 affected
same,GLUT2 protein change versus control (direction),GLUT2; dKO islets,Neither CuDIPs nor Na2SeO3 affected
same,GK activity change versus control (direction),GK; GKO islets,increased
same,GK activity change versus control (direction),GK; SKO islets,decreased
same,GK activity change versus control (direction),GK; dKO islets,Neither CuDIPs nor Na2SeO3 affected
same,GSIS (insulin secretion) versus solvent control,[1]; GKO islets,did not affect
same,GSIS (insulin secretion) versus solvent control,[1]; SKO islets,elevated
same,GSIS (insulin secretion) versus solvent control,[1]; WT islets,did not affect
same,GSIS (insulin secretion) versus solvent control,[1]; dKO islets,elevated
same,PDX1 protein change versus control (direction),PDX1; dKO islets,Neither CuDIPs nor Na2SeO3 affected

# From patent US20150297564A1 (CORNELL UNIVERSITY, priority 2014, published 2015)
